Holding throughout (type): biochemical
Experiment [1] concerns the target T1, β-Glucuronidase (E. coli) (Escherichia coli, UniProt P05804).
T1 construct: purchased Sigma-Aldrich Chemical Co
The experiment in a line: β-Glucuronidase (E. coli) inhibition. As to the method: (§1) With rat intestinal maltase as an exception, other enzymes were purchased from Sigma-Aldrich Chemical Co. (St. Louis, MO, USA). Brush border membranes prepared from rat small intestine according to the method of Kessler et al. were assayed at pH 6.8 for rat intestinal maltase using maltose. The released D-glucose was determined colorimetrically using the Glucose CII-test Wako (Wako Pure Chemical Ind.; Osaka, Japan). Other glycosidase activities were determined using an appropriate p-nitrophenyl glycoside as substrate in a buffer solution at the optimal pH value of each enzyme. The reaction was stopped by adding 400 mM Na2CO3. The released p-nitrophenol was measured spectrometrically at 400 nm.

In experiment [2] the target is α-L-Rhamnosidase (P. decumbens). Briefly: α-L-Rhamnosidase (P. decumbens) inhibition. On the procedure:
as §1

Another experiment addresses α-Glucosidase (Yeast) (Saccharomyces cerevisiae, UniProt P53341). Briefly: α-Glucosidase (yeast) inhibition. As to the method: as §1
In experiment [3] the target is β-N-Acetylhexosaminidase (Bovine liver). Briefly: β-N-Acetylhexosaminidase (bovine liver) inhibition. The following applies: for IC50: β-N-Acetylhexosaminidase (β-GlcNAcase); for Inhibition % at 1000 μM: β-N-Acetylhexosaminidase. On the procedure: as §1
Experiment [4] has as its target T2, α-L-Fucosidase (Bovine kidney) (Bos taurus, UniProt Q2KIM0).
T2 construct: purchased Sigma-Aldrich Chemical Co; host or cells: bovine kidney
T2 sequence (Q2KIM0 23-468): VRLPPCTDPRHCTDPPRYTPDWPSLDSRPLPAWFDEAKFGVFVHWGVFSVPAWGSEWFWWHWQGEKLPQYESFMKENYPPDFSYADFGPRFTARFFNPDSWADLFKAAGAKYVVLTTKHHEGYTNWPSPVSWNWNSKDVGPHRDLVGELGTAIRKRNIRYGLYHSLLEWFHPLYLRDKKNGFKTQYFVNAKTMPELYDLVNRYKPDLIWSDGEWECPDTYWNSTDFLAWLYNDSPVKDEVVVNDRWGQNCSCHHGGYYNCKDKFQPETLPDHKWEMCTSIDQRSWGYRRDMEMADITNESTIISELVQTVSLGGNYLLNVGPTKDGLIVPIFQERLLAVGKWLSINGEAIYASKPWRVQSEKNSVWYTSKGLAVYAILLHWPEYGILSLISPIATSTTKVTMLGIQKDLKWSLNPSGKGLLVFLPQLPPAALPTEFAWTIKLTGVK
Briefly: α-L-Fucosidase (bovine kidney) inhibition. On the procedure: as §1

Experiment [5] addresses T3, α-Mannosidase (Jack bean) (Canavalia ensiformis, UniProt C0HJB3).
T3 construct: purchased Sigma-Aldrich Chemical Co
T3 sequence (C0HJB3 1-981): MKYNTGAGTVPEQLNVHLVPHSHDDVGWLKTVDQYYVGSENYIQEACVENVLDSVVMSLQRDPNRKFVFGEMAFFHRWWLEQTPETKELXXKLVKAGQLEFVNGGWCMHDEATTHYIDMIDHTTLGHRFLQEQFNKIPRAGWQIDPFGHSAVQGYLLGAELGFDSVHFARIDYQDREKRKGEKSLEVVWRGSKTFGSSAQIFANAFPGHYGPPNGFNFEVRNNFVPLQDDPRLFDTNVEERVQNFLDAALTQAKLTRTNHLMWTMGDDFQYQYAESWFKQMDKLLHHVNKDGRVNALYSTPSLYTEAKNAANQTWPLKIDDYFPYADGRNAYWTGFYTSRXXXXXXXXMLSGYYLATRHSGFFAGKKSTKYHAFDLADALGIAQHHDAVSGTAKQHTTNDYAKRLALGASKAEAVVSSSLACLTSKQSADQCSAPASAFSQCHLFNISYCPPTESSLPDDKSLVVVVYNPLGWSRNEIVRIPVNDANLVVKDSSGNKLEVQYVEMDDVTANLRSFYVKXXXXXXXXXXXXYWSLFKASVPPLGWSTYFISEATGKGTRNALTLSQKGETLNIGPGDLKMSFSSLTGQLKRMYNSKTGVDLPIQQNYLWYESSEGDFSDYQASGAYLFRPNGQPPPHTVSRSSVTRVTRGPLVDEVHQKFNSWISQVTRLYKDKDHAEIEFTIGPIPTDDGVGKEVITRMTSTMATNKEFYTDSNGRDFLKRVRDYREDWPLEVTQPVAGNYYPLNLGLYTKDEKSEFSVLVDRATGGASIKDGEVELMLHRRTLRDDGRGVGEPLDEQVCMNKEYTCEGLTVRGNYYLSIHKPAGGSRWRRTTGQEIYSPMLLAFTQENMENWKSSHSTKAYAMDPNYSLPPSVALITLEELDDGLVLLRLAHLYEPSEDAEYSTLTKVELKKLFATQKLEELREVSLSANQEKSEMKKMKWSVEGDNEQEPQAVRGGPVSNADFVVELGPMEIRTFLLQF
Briefly: α-Mannosidase (Jack bean) inhibition. As to the method: as §1

Experiment [6] deals with β-Glucosidase (Bovine liver). Briefly: β-Glucosidase (bovine liver) inhibition. As to the method: as §1
The target in experiment [7] is T4, Amyloglucosidase (A. niger) (Aspergillus niger, UniProt P69328).
T4 construct: purchased Sigma-Aldrich Chemical Co
T4 sequence (P69328 25-640): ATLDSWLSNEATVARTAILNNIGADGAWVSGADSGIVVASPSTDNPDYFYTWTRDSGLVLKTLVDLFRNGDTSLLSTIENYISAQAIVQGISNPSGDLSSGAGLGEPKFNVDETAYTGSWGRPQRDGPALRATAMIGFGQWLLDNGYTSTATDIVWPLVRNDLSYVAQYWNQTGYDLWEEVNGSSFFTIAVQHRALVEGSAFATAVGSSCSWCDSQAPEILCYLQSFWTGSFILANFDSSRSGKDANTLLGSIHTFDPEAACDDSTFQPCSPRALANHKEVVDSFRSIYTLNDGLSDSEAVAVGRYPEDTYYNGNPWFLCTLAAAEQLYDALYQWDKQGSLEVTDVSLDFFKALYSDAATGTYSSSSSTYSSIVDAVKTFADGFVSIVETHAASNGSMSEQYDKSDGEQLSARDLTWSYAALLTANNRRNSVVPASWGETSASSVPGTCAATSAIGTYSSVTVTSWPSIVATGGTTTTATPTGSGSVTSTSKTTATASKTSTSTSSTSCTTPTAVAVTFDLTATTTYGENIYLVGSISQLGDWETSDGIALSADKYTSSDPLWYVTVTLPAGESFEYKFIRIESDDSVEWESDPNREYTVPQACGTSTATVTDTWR
The experiment in a line: Amyloglucosidase (A. niger) inhibition. As to the method:
as §1

Experiment [8] addresses T5, β-Galactosidase (Bovine liver) (Bos taurus, UniProt F1MNT6).
T5 sequence (F1MNT6 1-469): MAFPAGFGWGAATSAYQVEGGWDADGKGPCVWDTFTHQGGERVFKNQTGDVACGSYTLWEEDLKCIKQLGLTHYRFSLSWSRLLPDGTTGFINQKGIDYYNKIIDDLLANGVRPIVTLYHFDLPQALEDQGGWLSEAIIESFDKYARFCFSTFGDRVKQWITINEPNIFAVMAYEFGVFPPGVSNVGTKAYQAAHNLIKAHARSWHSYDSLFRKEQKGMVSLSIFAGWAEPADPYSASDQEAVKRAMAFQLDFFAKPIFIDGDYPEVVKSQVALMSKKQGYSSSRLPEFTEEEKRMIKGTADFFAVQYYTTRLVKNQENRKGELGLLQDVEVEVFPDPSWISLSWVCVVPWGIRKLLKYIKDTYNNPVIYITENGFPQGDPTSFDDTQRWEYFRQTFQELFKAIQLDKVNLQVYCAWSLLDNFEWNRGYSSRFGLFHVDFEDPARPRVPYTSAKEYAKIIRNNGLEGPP
The experiment in a line: β-Galactosidase (bovine liver) inhibition. As to the method: as §1

[9] abbreviates: 1000 μM, read-out: Inhibition % at 1000 μM.
The mark [10] stands for this setting: read-out: Inhibition % at 1000 μM.
Where [11] appears, read: α-Glucosidase, Yeast, read-out: IC50.

The text below walks through data of PMC7180638, “Synthesis of Pyrrolidine Monocyclic Analogues of Pochonicine and Its Stereoisomers: Pursuit of Simplified Structures and Potent β-N-Acetylhexosaminidase Inhibition” (Molecules, 2020).

Structures can show the parent of a compound that is named as a salt. Where two headings read alike, the source gives them in different places.

Chain of α-Glucosidase (Yeast) (P53341 whole entry): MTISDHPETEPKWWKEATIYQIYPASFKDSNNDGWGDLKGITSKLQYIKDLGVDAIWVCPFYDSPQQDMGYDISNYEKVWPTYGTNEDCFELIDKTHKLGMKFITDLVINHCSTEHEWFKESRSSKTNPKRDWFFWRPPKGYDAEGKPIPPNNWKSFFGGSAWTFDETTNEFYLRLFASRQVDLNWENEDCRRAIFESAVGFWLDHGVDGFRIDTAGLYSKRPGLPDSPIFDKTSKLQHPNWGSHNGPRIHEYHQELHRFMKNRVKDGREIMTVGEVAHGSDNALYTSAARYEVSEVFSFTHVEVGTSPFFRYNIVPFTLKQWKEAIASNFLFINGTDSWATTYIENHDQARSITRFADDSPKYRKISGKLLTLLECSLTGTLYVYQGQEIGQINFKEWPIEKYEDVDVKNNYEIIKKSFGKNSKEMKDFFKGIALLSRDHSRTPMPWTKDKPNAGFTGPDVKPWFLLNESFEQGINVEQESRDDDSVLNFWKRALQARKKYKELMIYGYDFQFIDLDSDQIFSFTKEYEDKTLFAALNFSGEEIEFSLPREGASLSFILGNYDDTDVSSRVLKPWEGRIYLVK
T1 sequence (P05804 whole entry): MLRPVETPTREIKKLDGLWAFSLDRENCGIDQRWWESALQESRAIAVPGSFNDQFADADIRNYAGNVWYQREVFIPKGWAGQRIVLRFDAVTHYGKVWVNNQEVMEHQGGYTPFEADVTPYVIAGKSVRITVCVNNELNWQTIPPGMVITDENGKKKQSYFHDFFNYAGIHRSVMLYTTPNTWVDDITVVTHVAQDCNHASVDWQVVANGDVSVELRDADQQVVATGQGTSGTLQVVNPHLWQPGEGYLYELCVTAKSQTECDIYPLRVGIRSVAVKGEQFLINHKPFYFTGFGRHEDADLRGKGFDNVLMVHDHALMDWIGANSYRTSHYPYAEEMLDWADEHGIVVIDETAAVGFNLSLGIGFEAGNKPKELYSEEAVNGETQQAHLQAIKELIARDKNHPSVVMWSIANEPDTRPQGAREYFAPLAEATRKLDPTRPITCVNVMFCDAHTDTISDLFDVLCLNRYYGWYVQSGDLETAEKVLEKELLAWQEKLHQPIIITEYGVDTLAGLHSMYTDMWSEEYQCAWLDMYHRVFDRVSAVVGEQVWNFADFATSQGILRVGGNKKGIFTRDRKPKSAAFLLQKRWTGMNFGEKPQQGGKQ

Turning to `CC(=O)NC[C@H]1N[C@H](CO)[C@@H](O)[C@@H]1O` [4·HCl, 1-N-acetylamino-2,5-imino-1,2,5-trideoxy-D-mannitol hydrochloride], the inhibition at 1000 µM in [1] (setting [9]) is 0.6%; in [1] (read-out: IC50), below 50%; in experiment [4] (setting [9]) it was 1.5%; in experiment [4] (read-out: IC50) it was below 50%; in experiment [5] (setting [9]) it was 0%; in experiment [5] (read-out: IC50), below 50%. Further, the inhibition at 1000 µM in experiment [7] (setting [9]) was 40.6%; in [7] (read-out: IC50) it was below 50%. The IC50 result in [2] is “NI (No Inhibition (less than 50% at 1000 μM))”; against α-Glucosidase (Yeast) (α-Glucosidase, Yeast), 450 µM; in experiment [3] (read-out: IC50), 4.7 µM; in experiment [6], “NI (No Inhibition (less than 50% at 1000 μM))”. In addition, the results for the “Inhibition % at 1000 μM” value in [2] and in [6] were 6.5% and 33.8%, respectively.
With `CC(=O)NC[C@@H]1N[C@H](CO)[C@H](O)[C@H]1O` [F-10a, 1-N-acetylamino-2,5-imino-1,2,5-trideoxy-L-glucitol hydrochloride], the inhibition at 1000 µM in experiment [1] (setting [9]) was 0%; in experiment [1] (read-out: IC50), below 50%; at α-Glucosidase (Yeast) (read-out: IC50), below 50%; on α-Glucosidase (Yeast) (setting [10]), 6.91%; in [4] (setting [9]), 8.4%; in experiment [4] (read-out: IC50), below 50%. Also, the inhibition at 1000 µM was 0% in experiment [5] (setting [9]); below 50% in [5] (read-out: IC50); 2.8% in [7] (setting [9]); below 50% in experiment [7] (read-out: IC50); 4.2% in experiment [8] (setting [9]); below 50% in experiment [8] (read-out: IC50). Further, the IC50 result in experiment [2], in experiment [3] and in experiment [6] was “NI (No Inhibition (less than 50% at 1000 μM))” each time. Also, the “Inhibition % at 1000 μM” value in experiment [2] worked out at 5.3%; in experiment [3] it was 23.2%; in experiment [6], 0.3%.
On to `CC(=O)NC[C@@H]1N[C@@H](CO)[C@@H](O)[C@@H]1O` [E-10b, 1-N-acetylamino-2,5-imino-1,2,5-trideoxy-L-iditol hydrochloride], for which the inhibition at 1000 µM is 0% in [1] (setting [9]); below 50% in experiment [1] (read-out: IC50); 0% at α-Glucosidase (Yeast) (setting [10]); below 50% at α-Glucosidase (Yeast) (setting [11]); 20.5% in experiment [4] (setting [9]); below 50% in experiment [4] (read-out: IC50). Further, the inhibition at 1000 µM in [5] (setting [9]) is 3.8%; in experiment [5] (read-out: IC50) it was below 50%; in experiment [7] (setting [9]), 6.4%; in [7] (read-out: IC50), below 50%; in experiment [8] (setting [9]), 3.9%; in experiment [8] (read-out: IC50), below 50%. Also, the IC50 result in [2], in experiment [3] and in experiment [6] was “NI (No Inhibition (less than 50% at 1000 μM))” each time. Also, the “Inhibition % at 1000 μM” value in [2] is listed as 30.8%; in [3], 38.4%; in experiment [6] it was 0%.
In the case of `CC(=O)NC[C@@H]1N[C@@H](CO)[C@@H](O)[C@H]1O` [C-10, 1-N-acetylamino-2,5-imino-1,2,5-trideoxy-L-altritol hydrochloride], the inhibition at 1000 µM in [1] (setting [9]) was 0.3%; in [1] (read-out: IC50) it was below 50%; at α-Glucosidase (Yeast) (setting [10]) it was 0%; on α-Glucosidase (Yeast) (setting [11]), below 50%; in [4] (setting [9]), 4.9%; in [4] (read-out: IC50), below 50%. The inhibition at 1000 µM in experiment [5] (setting [9]) was 0.4%; in [5] (read-out: IC50), below 50%; in experiment [7] (setting [9]) it was 1.9%; in [7] (read-out: IC50) it was below 50%; in experiment [8] (setting [9]) it was 1.3%; in experiment [8] (read-out: IC50), below 50%. For the same compound, the IC50 entry in [2], in experiment [3] and in experiment [6] was “NI (No Inhibition (less than 50% at 1000 μM))” each time. For the same compound, the “Inhibition % at 1000 μM” value came out at 3.6% in experiment [2], 36.3% in experiment [3] and 1.0% in experiment [6].
As for `CC(=O)NC[C@H]1N[C@@H](CO)[C@H](O)[C@@H]1O` [G-10, 1-N-acetylamino-2,5-imino-1,2,5-trideoxy-D-allitol hydrochloride], the inhibition at 1000 µM is 0% in [1] (setting [9]); below 50% in experiment [1] (read-out: IC50); 0% at α-Glucosidase (Yeast) (setting [10]); below 50% at α-Glucosidase (Yeast) (setting [11]); 11.5% in experiment [4] (setting [9]); below 50% in experiment [4] (read-out: IC50). The inhibition at 1000 µM is 4% in [5] (setting [9]); below 50% in experiment [5] (read-out: IC50); 7.6% in experiment [7] (setting [9]); below 50% in [7] (read-out: IC50); 2.9% in experiment [8] (setting [9]); below 50% in experiment [8] (read-out: IC50). Also, the IC50 result in [2] is “NI (No Inhibition (less than 50% at 1000 μM))”; in experiment [3] (read-out: IC50), 299 µM; in experiment [6], “NI (No Inhibition (less than 50% at 1000 μM))”. The “Inhibition % at 1000 μM” value in [2] worked out at 9.5%; in experiment [6], 0%.
For `CC(=O)NC[C@H]1N[C@H](CO)[C@H](O)[C@@H]1O` [D-10, 1-N-acetylamino-2,5-imino-1,2,5-trideoxy-D-altritol hydrochloride], the inhibition at 1000 µM is 0% in [1] (setting [9]); below 50% in experiment [1] (read-out: IC50); 0% at α-Glucosidase (Yeast) (setting [10]); below 50% on α-Glucosidase (Yeast) (setting [11]); 1.7% in experiment [4] (setting [9]); below 50% in experiment [4] (read-out: IC50). In addition, the inhibition at 1000 µM in experiment [7] (setting [9]) was 3.8%; in [7] (read-out: IC50), below 50%; in experiment [8] (setting [9]), 3.3%; in [8] (read-out: IC50), below 50%. For the same compound, the values for the IC50 entry in [2], in [5] and in experiment [6] were “NI (No Inhibition (less than 50% at 1000 μM))”, 205 µM and “NI (2.4%) (No Inhibition (less than 50% at 1000 μM))”, respectively. For the same compound, in experiment [2], the “Inhibition % at 1000 μM” value was determined as 8.3%.

What is called IC50 is the concentration that inhibits the measured activity by half.
